System: rabbit cornea
Assay: Penetration enhancement testing: rate of diffusion of drug between chambers separated by rabbit cornea
Format: in vitro ADME
Conditions: test drugs prednisolone, guanethidine, flurbiprofen, compound used as penetration enhancer
Experimental: Permeation efficiencies are determined by measuring the rate of diffusion of drug between posterior and anterior chambers separated by rabbit cornea. Suitable test drugs include prednisolone, guanethidine, and flurbiprofen. Compounds II and V, described in Examples 2 and 4 above, are tested penetration enhancers. Water, acetone, ethanol, and GBR (glutathione-buffered Ringer's solution) are convenient vehicles used alone or in combination together with the test drugs and the proposed penetration enhancers. The relative rates of diffusion can be determined indirectly by measuring pH versus time in the respective chambers, or by HPLC.

Row | Compound | penetration or permeation of test drugs relative to similar compositions without the present compounds
1 | CCOCCOCCOCCN1CCCCCC1=O [Compound II, N-triethoxyethylether Caprolactam] | enhanced penetration or permeation
2 | O=C1CCCCCN1CCOCCOCCO [Compound V, N-triethyleneglycol Caprolactam] | enhanced penetration or permeation
